In patent US20110059869A1, “Method for Increasing Enzymatic Reactivity” (RIKEN, priority 2008, published 2011):

Experiments:
Assay type in all cases: biochemical
[1] = test system: ligation enzymatic reaction solution of a SOLID system 2.0; assay: Sequencing reaction in a SOLID sequencing system; details: 0.3 M trehalose vs none
Experimental: D(+)-trehalose was added to the ligation enzymatic reaction solution of a SOLID system 2.0 and the effects were measured. The experiment was conducted at a final D(+)-trehalose concentration of 0.3 M. The noise to signal ratio (N/S ratio) of each cycle was employed for comparison. The N/S ratio was obtained by dividing the second brightest fluorescence intensity by the brightest fluorescence intensity.
The D(+)-trehalose employed was D(+)-trehalose dihydrate (201-02253 reagent grade) (Wako). A SOLiD™ fragment library sequencing kit v2 (4400466) was employed for sequencing with the SOLID system (Applied Biosystems). The sample employed as a SOLiD™ DH10B fragment library control kit (4391889).
Probe Mixes A and B and bridge probe, prepared with the reagents contained in a SOLiD™ fragment library sequence kit v2 (4400466) and adjusted to a D(+)-trehalose (90208 BioChemika, 99.5% (HPLC)) (Fluka) concentration of 1.7 M, were added to each sequence primer in the quantities indicated below.
The operation was conducted according to the manufacturer's protocol following addition.

restriction enzyme PstI = assay: PstI cleavage reactions with different distances from bead or plate surface to the DNA cleavage site; details: 0.6 M trehalose vs none; cleavage site 20 bp, 50 bp, 100 bp from surface; beads and plates
Experimental: Three biotin-labeled DNA fragments I, II, and III (Seq. ID Nos. 4 to 6, Scheme 4) were cleaved at their respective restriction enzyme PstI site and the size of the DNA fragments released was examined. Paramagnetic streptavidin beads were washed with the accessory 1× binding buffer and recovered with a magnetic stand to remove the supernatant. They were then suspended in identical buffer. To each of the three types of biotin-labeled DNA fragments (500 ng) was admixed an equal volume of 2× binding buffer, the bead solution was added, and the mixture was stirred gently for 15 minutes with top to bottom inversion and rotation to induce adsorption. The beads to which the sample had adsorbed were recovered with the magnetic stand, washed three times with 1× binding buffer, and washed one more time with 1× PstI buffer. […] The precipitate of DNA fragments obtained was dissolved in 1× TE (pH 7.5) and analyzed with Bioanalyzer DNA 1000 assay (Agilent Technologies).
Three biotin-labeled DNA fragments I, II, and III (Seq. ID Nos. 4 to 6, Scheme 4) were cleaved at their respective restriction enzyme PstI site and the size of the DNA fragments released was examined. […] The precipitate of DNA fragments obtained was dissolved in 1× TE (pH 7.5) and analyzed with Bioanalyzer DNA 1000 assay (Agilent Technologies). […]

[2] = test system: XhoI, PstI, HindIII, and NotI; assay: Various restriction enzyme reactions on biotin-labeled cDNA immobilized on streptavidin beads; details: 0.6 M trehalose vs trehalose (−); 3 hours at 37° C.; all enzymes
Experimental: Streptavidin beads on which were adsorbed double-stranded cDNA were washed with various restriction enzyme buffers. The restriction enzymes employed were XhoI, PstI, HindIII, and NotI. Two reaction solutions (various 1× buffers, 1× BSA based on enzyme, restriction enzyme 40 units) were prepared: a trehalose (+) system to which D(+)-trehalose was added to a final concentration of 0.6 M, and a trehalose (−) system, to which no trehalose was added. The reaction solutions were admixed to beads that had been washed and the mixtures were reacted for 3 hours at 37° C. A magnetic stand was used to recover (aggregate) the beads, cleavage was conducted with restriction enzyme, and the supernatant containing the cDNA that had been released was measured with a liquid scintillation counter. The cDNA yield and restriction enzyme efficiency were calculated from the RI count values (Scheme 2).

[3] = test system: enzyme reaction solution in a Genome Analyzer system; assay: Sequencing reaction in a Solexa sequencing system (Genome Analyzer), PhiX control; details: trehalose 0.15 M, 0.3 M
Experimental: D(+)-trehalose was added to the enzyme reaction solution in a Genome Analyzer system (GAI) and the results were measured. The experiment was conducted with the three D(+)-trehalose final concentrations of 0.15 M, 0.3 M, and 0.51 M. The ratio of the reduction in the average value obtained by dividing the fluorescence intensity calculated for each cycle by the number of clusters was employed for comparison.
The D(+)-trehalose employed was D(+)-trehalose (90208 BioChemika, ≧99.5% (HPLC) (Fluka). A 36-cycle Illumina Sequencing Kit (FC-204-2036) was employed for sequencing with a Genome Analyzer (Illumina). The sample employed was PhiX control (CT-901-1001).
The IMX36 (42 mL) in box 2 of the SBS Kit contained in the 36-Cycle SBS Reagent Kit v2 (IIlumina catalog #FC-204-2036) was melted, after which D(+)-trehalose was added in the quantities indicated in Table 3.
Following the addition, the mixture was shielded from light and gently mixed with top to bottom inversion for 10 minutes at room temperature. Once the dissolution had been visually confirmed, the mixture was passed through a filter (with a filter pore system of 0.22 micrometers). Precisely the required 42 mL was collected from the mixed solution following filtration. Subsequently, the operations specified in the manufacturer's protocol were conducted.

For `OC[C@H]1O[C@H](O[C@H]2O[C@H](CO)[C@@H](O)[C@H](O)[C@H]2O)[C@H](O)[C@@H](O)[C@@H]1O` [trehalose, D(+)-trehalose], the “noise to signal ratio (N/S ratio) with each cycle” value [1] was “reduced the rise in noise”, the “yield of DNA released by cleavage” value (restriction enzyme PstI) was “increase” and the “quantity of released cDNA recovered” value [2] was “higher quantity was recovered”. The “difference in rate of reduction in fluorescence intensity, trehalose (+) vs trehalose (−)” value ([3]; 35th cycle, 0.51 M, PhiX control) was ≥ 20% and the “PhiX control mapping rate” value ([3]; 0.51 M relative to trehalose (−)) was “overall significant difference”.
